How the values were obtained:
Assay in all cases: Kinase panel activity
Format in all cases: biochemical
Details in all cases: 0.1 μM, ATP Km
B1k(m) = B1k(m) (Mus musculus, UniProt P16277)
Method: (§1) The effect of NTW-3475 on kinase activity was tested for a wide range of kinases and is shown in Table 2: Summary Sheet, Activity % ATP Concentration: Km

PKBγ(h) = PKBγ(h) (Homo sapiens, UniProt Q9Y243)
Method: as §1

FGFR4(h) = FGFR4(h) (Homo sapiens, UniProt P22455)
Method: as §1

EGFR(T790M)(h) = molecular target: T1, EGFR(T790M)(h) (Homo sapiens, UniProt P00533, T790M)
T1 construct: purchased Millipore (KinaseProfiler service)
Method: as §1

Met(M1268T)(h) = molecular target: T2, Met(M1268T)(h) (Homo sapiens, UniProt P08581, M1250T)
T2 construct: purchased Millipore (KinaseProfiler service)
Method: as §1

EphB1(h) = molecular target: T3, EphB1(h) (Homo sapiens, UniProt P54762)
T3 construct: purchased Millipore (KinaseProfiler service)
Method: as §1

MSK1(h) = molecular target: T4, MSK1(h) (Homo sapiens, UniProt O75582)
T4 construct: purchased Millipore (KinaseProfiler service)
Method: as §1

GSK3β(h) = GSK3β(h) (Homo sapiens, UniProt P49841)
GSK3β(h), sequence (P49841 whole entry): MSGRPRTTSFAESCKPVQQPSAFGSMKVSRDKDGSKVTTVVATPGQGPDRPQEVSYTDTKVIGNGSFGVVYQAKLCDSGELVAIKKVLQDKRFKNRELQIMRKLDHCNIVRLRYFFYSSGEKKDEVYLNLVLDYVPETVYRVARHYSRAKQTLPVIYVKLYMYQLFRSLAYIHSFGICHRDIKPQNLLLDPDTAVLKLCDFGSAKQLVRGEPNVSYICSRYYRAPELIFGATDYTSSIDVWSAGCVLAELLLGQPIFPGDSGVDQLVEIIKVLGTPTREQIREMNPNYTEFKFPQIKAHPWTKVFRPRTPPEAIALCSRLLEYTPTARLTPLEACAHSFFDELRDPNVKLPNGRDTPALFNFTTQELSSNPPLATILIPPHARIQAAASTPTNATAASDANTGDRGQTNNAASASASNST
Method: as §1

Ron(h) = molecular target: T5, Ron(h) (Homo sapiens, UniProt Q04912)
T5 construct: purchased Millipore (KinaseProfiler service)
Method: as §1

CaMKIV(h) = CaMKIV(h) (Homo sapiens, UniProt Q16566)
Method: as §1

IR(h), activated = IR(h), activated (Homo sapiens, UniProt P06213)
Method: as §1

Ab1(Y253F)(h) = Ab1(Y253F)(h) (Homo sapiens, UniProt P00519, Y253F)
Method: as §1

HIPK3(h) = HIPK3(h) (Homo sapiens, UniProt Q9H422)
Method: as §1

TAK1(h) = molecular target: T6, TAK1(h) (Homo sapiens, UniProt O43318)
T6 construct: purchased Millipore (KinaseProfiler service)
Method: as §1

Mer(h) = molecular target: T7, Mer(h) (Homo sapiens, UniProt Q12866)
T7 construct: purchased Millipore (KinaseProfiler service)
Method: as §1

TGFBR1(h) = molecular target: T8, TGFBR1(h) (Homo sapiens, UniProt P36897)
T8 construct: purchased Millipore (KinaseProfiler service)
Method: as §1

PRAK(h) = PRAK(h) (Homo sapiens, UniProt Q8IW41)
Method: as §1

SRPK2(h) = molecular target: T9, SRPK2(h) (Homo sapiens, UniProt P78362)
T9 construct: purchased Millipore (KinaseProfiler service)
Method: as §1

EphA4(h) = molecular target: T10, EphA4(h) (Homo sapiens, UniProt P54764)
T10 construct: purchased Millipore (KinaseProfiler service)
Method: as §1

CDK5/p25(h) = CDK5/p25(h) (Homo sapiens, UniProt Q00535)
CDK5/p25(h), sequence (Q00535 whole entry): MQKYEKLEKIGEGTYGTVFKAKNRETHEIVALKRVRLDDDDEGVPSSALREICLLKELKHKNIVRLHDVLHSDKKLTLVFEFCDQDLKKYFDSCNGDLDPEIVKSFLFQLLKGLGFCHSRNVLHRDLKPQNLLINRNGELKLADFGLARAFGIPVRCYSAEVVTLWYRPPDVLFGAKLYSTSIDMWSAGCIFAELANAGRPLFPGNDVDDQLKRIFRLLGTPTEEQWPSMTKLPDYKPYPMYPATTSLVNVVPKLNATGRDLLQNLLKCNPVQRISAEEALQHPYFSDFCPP
CDK5/p25(h), sequence (Q15078 99-307 partner limits assumed): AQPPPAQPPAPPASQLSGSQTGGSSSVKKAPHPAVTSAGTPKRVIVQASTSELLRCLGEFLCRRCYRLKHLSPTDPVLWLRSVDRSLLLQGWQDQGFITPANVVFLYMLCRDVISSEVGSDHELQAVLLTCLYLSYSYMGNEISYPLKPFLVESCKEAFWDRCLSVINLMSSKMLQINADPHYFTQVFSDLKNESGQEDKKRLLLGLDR
Method: as §1

Met(Y1248C)(h) = molecular target: T11, Met(Y1248C)(h) (Homo sapiens, UniProt P08581, Y1230C)
T11 construct: purchased Millipore (KinaseProfiler service)
Method: as §1

EphA2(h) = molecular target: T12, EphA2(h) (Homo sapiens, UniProt P29317)
T12 construct: purchased Millipore (KinaseProfiler service)
Method: as §1

GSK3α(h) = GSK3α(h) (Homo sapiens, UniProt P49840)
Method: as §1

Fes(h) = molecular target: T13, Fes(h) (Homo sapiens, UniProt P07332)
T13 construct: purchased Millipore (KinaseProfiler service)
Method: as §1

Txk(h) = Txk(h) (Homo sapiens, UniProt P42681)
Txk(h), sequence (P42681 whole entry): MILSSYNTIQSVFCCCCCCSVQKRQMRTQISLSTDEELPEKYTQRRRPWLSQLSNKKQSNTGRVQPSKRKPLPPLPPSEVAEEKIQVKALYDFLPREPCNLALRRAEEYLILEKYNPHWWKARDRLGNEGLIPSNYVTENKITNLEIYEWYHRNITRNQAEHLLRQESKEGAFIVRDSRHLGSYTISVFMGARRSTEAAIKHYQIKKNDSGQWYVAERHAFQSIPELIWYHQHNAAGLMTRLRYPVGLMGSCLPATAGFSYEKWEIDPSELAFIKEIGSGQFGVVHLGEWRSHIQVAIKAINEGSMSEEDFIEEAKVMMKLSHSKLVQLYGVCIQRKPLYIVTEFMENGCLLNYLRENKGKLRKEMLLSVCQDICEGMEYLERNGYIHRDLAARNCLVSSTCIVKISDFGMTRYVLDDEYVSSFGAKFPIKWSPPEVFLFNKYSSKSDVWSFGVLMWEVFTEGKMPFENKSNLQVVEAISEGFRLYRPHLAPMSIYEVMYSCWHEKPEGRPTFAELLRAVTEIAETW
Method: as §1

BTK(R28H)(h) = BTK(R28H)(h) (Homo sapiens, UniProt Q06187, R28H)
Method: as §1

GRK5(h) = GRK5(h) (Homo sapiens, UniProt P34947)
GRK5(h), sequence (P34947 whole entry): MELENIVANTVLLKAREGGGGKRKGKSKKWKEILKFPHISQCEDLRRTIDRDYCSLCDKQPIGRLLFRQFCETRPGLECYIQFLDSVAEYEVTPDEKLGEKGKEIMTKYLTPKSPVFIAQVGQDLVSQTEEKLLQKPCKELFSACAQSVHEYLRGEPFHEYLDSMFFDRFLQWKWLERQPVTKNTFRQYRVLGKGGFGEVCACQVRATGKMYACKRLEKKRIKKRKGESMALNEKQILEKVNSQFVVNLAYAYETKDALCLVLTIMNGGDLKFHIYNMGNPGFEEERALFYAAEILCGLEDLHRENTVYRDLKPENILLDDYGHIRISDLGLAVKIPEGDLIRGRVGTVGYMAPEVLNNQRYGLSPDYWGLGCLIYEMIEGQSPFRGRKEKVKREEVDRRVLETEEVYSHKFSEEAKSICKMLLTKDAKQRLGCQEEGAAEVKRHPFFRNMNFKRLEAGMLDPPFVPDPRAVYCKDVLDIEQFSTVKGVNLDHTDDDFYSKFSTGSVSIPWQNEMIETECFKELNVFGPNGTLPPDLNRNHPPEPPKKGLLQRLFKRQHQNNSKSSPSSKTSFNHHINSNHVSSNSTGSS
Method: as §1

PDGFRα(V561D)(h) = PDGFRα(V561D)(h) (Homo sapiens, UniProt P16234, V561D)
Method: as §1

Aurora-C(h) = Aurora-C(h) (Homo sapiens, UniProt Q9UQB9)
Aurora-C(h), sequence (Q9UQB9 whole entry): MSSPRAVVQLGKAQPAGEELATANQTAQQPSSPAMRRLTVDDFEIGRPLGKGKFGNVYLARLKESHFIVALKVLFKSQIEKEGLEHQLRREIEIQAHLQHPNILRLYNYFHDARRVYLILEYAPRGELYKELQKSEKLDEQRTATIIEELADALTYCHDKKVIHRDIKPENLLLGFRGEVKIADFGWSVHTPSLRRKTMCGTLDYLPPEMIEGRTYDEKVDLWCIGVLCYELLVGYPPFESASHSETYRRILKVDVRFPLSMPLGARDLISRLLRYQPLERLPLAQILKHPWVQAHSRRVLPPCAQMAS
Method: as §1

ASK1(h) = ASK1(h) (Homo sapiens, UniProt Q99683)
Method: as §1

Rsk2(h) = molecular target: T14, Rsk2(h) (Homo sapiens, UniProt P51812)
T14 construct: purchased Millipore (KinaseProfiler service)
Method: as §1

Snk(h) = molecular target: T15, Snk(h) (Homo sapiens, UniProt Q9NYY3)
T15 construct: purchased Millipore (KinaseProfiler service)
Method: as §1

MKK7β(h) = molecular target: T16, MKK7β(h) (Homo sapiens, UniProt O14733)
T16 construct: purchased Millipore (KinaseProfiler service)
T16 sequence (O14733 whole entry): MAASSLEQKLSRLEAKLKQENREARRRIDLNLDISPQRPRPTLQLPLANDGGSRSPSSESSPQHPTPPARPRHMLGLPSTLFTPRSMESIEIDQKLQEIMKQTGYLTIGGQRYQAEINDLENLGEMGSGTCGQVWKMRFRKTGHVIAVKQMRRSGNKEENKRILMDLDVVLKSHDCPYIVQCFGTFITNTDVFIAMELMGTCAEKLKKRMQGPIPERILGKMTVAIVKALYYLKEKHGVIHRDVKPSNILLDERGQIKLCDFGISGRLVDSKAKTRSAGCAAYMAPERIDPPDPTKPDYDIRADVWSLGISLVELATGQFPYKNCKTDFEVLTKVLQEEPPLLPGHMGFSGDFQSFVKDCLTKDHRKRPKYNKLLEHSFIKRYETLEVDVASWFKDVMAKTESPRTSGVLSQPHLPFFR
Method: as §1

FGFR2(N549H)(h) = FGFR2(N549H)(h) (Homo sapiens, UniProt P21802, N549H)
Method: as §1

MKK6(h) = molecular target: T17, MKK6(h) (Homo sapiens, UniProt P52564)
T17 construct: purchased Millipore (KinaseProfiler service)
T17 sequence (P52564 whole entry): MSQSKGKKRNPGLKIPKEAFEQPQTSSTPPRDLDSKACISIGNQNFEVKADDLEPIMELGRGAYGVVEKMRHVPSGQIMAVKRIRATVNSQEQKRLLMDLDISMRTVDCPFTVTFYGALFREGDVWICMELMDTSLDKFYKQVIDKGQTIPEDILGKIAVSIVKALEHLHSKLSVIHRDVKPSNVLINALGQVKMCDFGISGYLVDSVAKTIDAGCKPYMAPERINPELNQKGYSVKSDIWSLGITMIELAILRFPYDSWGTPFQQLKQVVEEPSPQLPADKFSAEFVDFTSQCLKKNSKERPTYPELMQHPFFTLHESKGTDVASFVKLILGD
Method: as §1

ErbB4(h) = molecular target: T18, ErbB4(h) (Homo sapiens, UniProt Q15303)
T18 construct: purchased Millipore (KinaseProfiler service)
Method: as §1

Fer(h) = molecular target: T19, Fer(h) (Homo sapiens, UniProt P16591)
T19 construct: purchased Millipore (KinaseProfiler service)
Method: as §1

ROCK-II(h) = molecular target: T20, ROCK-II(h) (Homo sapiens, UniProt O75116)
T20 construct: purchased Millipore (KinaseProfiler service)
T20 sequence (O75116 whole entry): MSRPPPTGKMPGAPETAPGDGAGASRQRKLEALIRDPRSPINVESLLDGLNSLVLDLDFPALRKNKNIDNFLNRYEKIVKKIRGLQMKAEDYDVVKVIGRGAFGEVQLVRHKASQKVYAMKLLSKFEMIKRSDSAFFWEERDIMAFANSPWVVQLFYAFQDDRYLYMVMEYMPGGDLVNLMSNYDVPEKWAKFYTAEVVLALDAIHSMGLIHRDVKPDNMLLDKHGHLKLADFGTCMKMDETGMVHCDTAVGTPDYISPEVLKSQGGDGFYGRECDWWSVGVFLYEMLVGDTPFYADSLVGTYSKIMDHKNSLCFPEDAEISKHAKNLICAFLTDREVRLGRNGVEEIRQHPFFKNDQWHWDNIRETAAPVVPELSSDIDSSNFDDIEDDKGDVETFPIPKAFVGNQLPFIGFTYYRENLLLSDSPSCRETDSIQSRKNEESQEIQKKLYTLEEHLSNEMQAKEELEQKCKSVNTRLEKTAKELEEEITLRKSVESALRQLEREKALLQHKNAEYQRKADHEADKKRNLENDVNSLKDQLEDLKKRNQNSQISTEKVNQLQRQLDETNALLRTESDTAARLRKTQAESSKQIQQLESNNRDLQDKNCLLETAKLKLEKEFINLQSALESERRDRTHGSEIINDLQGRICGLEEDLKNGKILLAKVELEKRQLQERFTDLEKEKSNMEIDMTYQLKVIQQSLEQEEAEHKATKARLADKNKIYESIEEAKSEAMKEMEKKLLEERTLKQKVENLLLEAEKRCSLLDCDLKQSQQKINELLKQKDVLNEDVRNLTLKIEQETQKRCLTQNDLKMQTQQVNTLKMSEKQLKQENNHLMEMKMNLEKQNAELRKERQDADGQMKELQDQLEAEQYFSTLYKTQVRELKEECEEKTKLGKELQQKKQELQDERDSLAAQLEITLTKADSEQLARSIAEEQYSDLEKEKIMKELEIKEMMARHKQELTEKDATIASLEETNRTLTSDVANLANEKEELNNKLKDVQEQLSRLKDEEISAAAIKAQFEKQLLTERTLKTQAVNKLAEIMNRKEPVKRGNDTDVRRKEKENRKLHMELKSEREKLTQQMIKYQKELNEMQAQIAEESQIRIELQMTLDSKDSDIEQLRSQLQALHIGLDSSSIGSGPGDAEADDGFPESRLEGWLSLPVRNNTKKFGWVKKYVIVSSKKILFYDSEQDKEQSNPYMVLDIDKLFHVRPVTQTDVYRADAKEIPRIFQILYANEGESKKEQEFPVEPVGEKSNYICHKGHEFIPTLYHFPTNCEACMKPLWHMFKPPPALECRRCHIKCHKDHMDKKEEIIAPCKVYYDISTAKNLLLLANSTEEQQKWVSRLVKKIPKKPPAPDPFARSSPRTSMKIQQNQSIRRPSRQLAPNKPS
Method: as §1

FAK(h) = molecular target: T21, FAK(h) (Homo sapiens, UniProt Q05397)
T21 construct: purchased Millipore (KinaseProfiler service)
Method: as §1

PKBγ(h), sequence (Q9Y243 whole entry): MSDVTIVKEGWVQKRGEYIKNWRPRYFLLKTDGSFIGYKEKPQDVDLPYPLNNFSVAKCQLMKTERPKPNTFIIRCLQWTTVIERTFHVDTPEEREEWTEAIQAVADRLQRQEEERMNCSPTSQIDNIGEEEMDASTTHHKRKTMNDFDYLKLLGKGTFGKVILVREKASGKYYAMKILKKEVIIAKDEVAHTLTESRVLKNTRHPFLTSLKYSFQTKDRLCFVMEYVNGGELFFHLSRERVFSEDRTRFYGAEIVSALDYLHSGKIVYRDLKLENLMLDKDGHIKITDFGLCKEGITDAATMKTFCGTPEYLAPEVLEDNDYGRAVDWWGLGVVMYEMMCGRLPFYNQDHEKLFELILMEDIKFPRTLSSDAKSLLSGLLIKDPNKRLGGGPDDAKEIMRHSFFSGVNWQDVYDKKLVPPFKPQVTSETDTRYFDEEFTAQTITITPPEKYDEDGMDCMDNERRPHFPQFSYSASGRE

Cc1cc2c(F)c(Oc3nc(Nc4cc(C5CC5)[nH]n4)cc(N4CCN(C)CC4)n3)cc(F)c2[nH]1 [NTW-3475]
Activity % (B1k(m)): 14%
Activity % (PKBγ(h)): 106%
Activity % (FGFR4(h)): 19%
Activity % (EGFR(T790M)(h)): 61%
Activity % (Met(M1268T)(h)): 22%
Activity % (EphB1(h)): −1%
Activity % (MSK1(h)): 104%
Activity % (GSK3β(h)): 106%
Activity % (Ron(h)): 34%
Activity % (CaMKIV(h)): 106%
Activity % (IR(h), activated): 13%
Activity % (Ab1(Y253F)(h)): −2%
Activity % (HIPK3(h)): 88%
Activity % (TAK1(h)): 65%
Activity % (Mer(h)): 2%
Activity % (TGFBR1(h)): 44%
Activity % (PRAK(h)): 100%
Activity % (SRPK2(h)): 99%
Activity % (EphA4(h)): 23%
Activity % (CDK5/p25(h)): 60%
Activity % (Met(Y1248C)(h)): 20%
Activity % (EphA2(h)): −1%
Activity % (GSK3α(h)): 96%
Activity % (Fes(h)): 32%
Activity % (Txk(h)): 20%
Activity % (BTK(R28H)(h)): 103%
Activity % (GRK5(h)): 100%
Activity % (PDGFRα(V561D)(h)): 8%
Activity % (Aurora-C(h)): 21%
Activity % (ASK1(h)): 112%
Activity % (Rsk2(h)): 65%
Activity % (Snk(h)): 97%
Activity % (MKK7β(h)): 97%
Activity % (FGFR2(N549H)(h)): −1%
Activity % (MKK6(h)): 113%
Activity % (ErbB4(h)): 90%
Activity % (Fer(h)): 69%
Activity % (ROCK-II(h)): 58%
Activity % (FAK(h)): 78%

Reference: patent US9458137B2, “Substituted indol-5-ol derivatives and their therapeutical applications” (NantBioScience, Inc., priority 2012, dated 2016)
